Experimental data taken from PubChem BioAssay (NCI).
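Where inhibition never reached the appropriate level, the endpoint shown equals the highest concentration tested. Otherwise, values were interpolated linearly from a five-concentration, 48-hour dose response in 96-well plates. TGI: concentration producing complete growth inhibition.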

Experiments:
Assay in all cases: DTP human tumour cell line panel, 48 h
NCI-H23 lung = tested on: NCI-H23 lung
OVCAR-4 ovarian = tested on: OVCAR-4 ovarian
SNB-75 CNS = tested on: SNB-75 CNS
UO-31 renal = tested on: UO-31 renal
A549 NSCLC = tested on: A549 NSCLC
MDA-N = tested on: MDA-N
HCC-2998 colon = tested on: HCC-2998 colon
U251 CNS = tested on: U251 CNS
MDA-MB-231 breast = tested on: MDA-MB-231 breast
SK-MEL-28 melanoma = tested on: SK-MEL-28 melanoma
IGROV1 ovarian = tested on: IGROV1 ovarian
SF-539 CNS = tested on: SF-539 CNS
CAKI-1 renal = tested on: CAKI-1 renal
KM12 colon = tested on: KM12 colon
SK-OV-3 ovarian = tested on: SK-OV-3 ovarian
RPMI-8226 leukemia = tested on: RPMI-8226 leukemia
TK-10 renal = tested on: TK-10 renal
SR leukemia = tested on: SR leukemia

Structure (SMILES) | TGI (NCI-H23 lung) | TGI (OVCAR-4 ovarian) | TGI (SNB-75 CNS) | TGI (UO-31 renal) | TGI (A549 NSCLC) | TGI (MDA-N) | TGI (HCC-2998 colon) | TGI (U251 CNS) | TGI (MDA-MB-231 breast) | TGI (SK-MEL-28 melanoma) | TGI (IGROV1 ovarian) | TGI (SF-539 CNS) | TGI (CAKI-1 renal) | TGI (KM12 colon) | TGI (SK-OV-3 ovarian) | TGI (RPMI-8226 leukemia) | TGI (TK-10 renal) | TGI (SR leukemia)
CC(C)(C)OC(=O)N/N=C(/N)c1ccccc1 | > 100 µM | > 100 µM | > 100 µM | > 100 µM | > 100 µM | > 100 µM | > 100 µM | > 100 µM | > 100 µM | > 100 µM | > 100 µM | > 100 µM | > 100 µM | > 100 µM | > 100 µM | > 100 µM | > 100 µM | –
COC(=O)/C(=C\C(=O)c1ccc(Br)cc1)NN=C(c1ccccc1)c1ccccc1 | > 10 µM | > 10 µM | > 10 µM | – | > 10 µM | > 10 µM | > 10 µM | – | > 10 µM | > 10 µM | > 10 µM | – | > 10 µM | > 10 µM | > 10 µM | > 10 µM | > 10 µM | > 10 µM
COP(=O)(C(/C=C/c1ccccc1)OC(C)=O)[C@@H]1CCCC[C@H]1N(CC(C)(C)C)C(C)=O (stereo partly drawn) | 42.5 µM | 33.1 µM | 22.7 µM | 27.9 µM | 47.3 µM | 36.7 µM | 28.2 µM | 31.7 µM | 31.6 µM | 53.1 µM | 24.1 µM | 33.4 µM | 92.6 µM | > 100 µM | > 100 µM | – | 48.2 µM | 36.2 µM
COc1ccc2[nH]c3c(C)c4cnccc4c(C)c3c2c1 | > 10 µM | 5.17 µM | > 10 µM | – | 3.65 µM | 3.43 µM | 3.35 µM | 3.24 µM | 6.77 µM | 3.44 µM | > 10 µM | 3.3 µM | > 10 µM | 2.83 µM | > 10 µM | 7.11 µM | > 10 µM | > 10 µM
O=[N+]([O-])c1ccc(N2N=C(c3ccc4ccccc4c3O)CC2c2ccc(Cl)cc2Cl)c([N+](=O)[O-])c1 (stereo not drawn) | > 100 µM | > 100 µM | > 100 µM | > 100 µM | > 100 µM | > 100 µM | > 100 µM | > 100 µM | > 100 µM | > 100 µM | > 100 µM | 70.6 µM | > 100 µM | > 100 µM | > 100 µM | 41.4 µM | > 100 µM | –
